# Laboratory results taken from ChEMBL document CHEMBL1201862, “PubChem BioAssay data set” (2004).
# The source made the active and inactive calls.
# How the values were obtained:
# Protein skinhead-1 = target: T1, Protein skinhead-1 (Caenorhabditis elegans, UniProt P34707); type: functional
# T1 sequence (P34707 whole entry): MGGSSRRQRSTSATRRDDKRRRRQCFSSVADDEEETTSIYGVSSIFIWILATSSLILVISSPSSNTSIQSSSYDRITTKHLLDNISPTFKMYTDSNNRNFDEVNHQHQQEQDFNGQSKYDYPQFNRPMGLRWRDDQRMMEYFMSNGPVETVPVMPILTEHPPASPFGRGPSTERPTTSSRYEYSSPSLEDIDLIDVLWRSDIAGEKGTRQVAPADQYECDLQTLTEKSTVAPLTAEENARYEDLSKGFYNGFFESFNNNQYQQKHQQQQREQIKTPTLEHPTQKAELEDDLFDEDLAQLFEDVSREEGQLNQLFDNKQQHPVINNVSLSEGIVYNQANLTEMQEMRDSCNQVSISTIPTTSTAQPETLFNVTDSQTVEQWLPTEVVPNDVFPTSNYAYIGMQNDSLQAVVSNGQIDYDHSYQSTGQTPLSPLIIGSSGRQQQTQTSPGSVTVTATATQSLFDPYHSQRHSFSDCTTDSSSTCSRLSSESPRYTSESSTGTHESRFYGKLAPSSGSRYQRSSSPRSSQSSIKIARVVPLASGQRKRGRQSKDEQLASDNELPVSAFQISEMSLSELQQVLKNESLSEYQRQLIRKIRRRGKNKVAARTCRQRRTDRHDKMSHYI
# [1] = target: T2, Ubiquitin-conjugating enzyme E2 N (Homo sapiens, UniProt P61088); type: functional;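 note: Dose-response confirmation in a TR-FRET assay detecting UBC13-driven polyubiquitin chain formation, inhibition measured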
# T2 sequence (P61088 whole entry): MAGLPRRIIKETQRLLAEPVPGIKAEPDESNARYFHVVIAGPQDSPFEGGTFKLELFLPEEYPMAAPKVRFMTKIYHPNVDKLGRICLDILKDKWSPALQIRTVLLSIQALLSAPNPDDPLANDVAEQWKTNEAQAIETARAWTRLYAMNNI
# Vero [2] = assay: cells; type: functional, cell-based, Chlorocebus sabaeus
# Vero [3] = assay: cells; type: functional, Chlorocebus sabaeus
# [4] = target: Voltage-dependent T-type calcium channel subunit alpha-1H (Homo sapiens, UniProt O95180); type: functional;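 note: channel activity triggered by adding a high calcium stimulation buffer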
# Voltage-dependent T-type calcium channel subunit alpha-1H, sequence (O95180 whole entry): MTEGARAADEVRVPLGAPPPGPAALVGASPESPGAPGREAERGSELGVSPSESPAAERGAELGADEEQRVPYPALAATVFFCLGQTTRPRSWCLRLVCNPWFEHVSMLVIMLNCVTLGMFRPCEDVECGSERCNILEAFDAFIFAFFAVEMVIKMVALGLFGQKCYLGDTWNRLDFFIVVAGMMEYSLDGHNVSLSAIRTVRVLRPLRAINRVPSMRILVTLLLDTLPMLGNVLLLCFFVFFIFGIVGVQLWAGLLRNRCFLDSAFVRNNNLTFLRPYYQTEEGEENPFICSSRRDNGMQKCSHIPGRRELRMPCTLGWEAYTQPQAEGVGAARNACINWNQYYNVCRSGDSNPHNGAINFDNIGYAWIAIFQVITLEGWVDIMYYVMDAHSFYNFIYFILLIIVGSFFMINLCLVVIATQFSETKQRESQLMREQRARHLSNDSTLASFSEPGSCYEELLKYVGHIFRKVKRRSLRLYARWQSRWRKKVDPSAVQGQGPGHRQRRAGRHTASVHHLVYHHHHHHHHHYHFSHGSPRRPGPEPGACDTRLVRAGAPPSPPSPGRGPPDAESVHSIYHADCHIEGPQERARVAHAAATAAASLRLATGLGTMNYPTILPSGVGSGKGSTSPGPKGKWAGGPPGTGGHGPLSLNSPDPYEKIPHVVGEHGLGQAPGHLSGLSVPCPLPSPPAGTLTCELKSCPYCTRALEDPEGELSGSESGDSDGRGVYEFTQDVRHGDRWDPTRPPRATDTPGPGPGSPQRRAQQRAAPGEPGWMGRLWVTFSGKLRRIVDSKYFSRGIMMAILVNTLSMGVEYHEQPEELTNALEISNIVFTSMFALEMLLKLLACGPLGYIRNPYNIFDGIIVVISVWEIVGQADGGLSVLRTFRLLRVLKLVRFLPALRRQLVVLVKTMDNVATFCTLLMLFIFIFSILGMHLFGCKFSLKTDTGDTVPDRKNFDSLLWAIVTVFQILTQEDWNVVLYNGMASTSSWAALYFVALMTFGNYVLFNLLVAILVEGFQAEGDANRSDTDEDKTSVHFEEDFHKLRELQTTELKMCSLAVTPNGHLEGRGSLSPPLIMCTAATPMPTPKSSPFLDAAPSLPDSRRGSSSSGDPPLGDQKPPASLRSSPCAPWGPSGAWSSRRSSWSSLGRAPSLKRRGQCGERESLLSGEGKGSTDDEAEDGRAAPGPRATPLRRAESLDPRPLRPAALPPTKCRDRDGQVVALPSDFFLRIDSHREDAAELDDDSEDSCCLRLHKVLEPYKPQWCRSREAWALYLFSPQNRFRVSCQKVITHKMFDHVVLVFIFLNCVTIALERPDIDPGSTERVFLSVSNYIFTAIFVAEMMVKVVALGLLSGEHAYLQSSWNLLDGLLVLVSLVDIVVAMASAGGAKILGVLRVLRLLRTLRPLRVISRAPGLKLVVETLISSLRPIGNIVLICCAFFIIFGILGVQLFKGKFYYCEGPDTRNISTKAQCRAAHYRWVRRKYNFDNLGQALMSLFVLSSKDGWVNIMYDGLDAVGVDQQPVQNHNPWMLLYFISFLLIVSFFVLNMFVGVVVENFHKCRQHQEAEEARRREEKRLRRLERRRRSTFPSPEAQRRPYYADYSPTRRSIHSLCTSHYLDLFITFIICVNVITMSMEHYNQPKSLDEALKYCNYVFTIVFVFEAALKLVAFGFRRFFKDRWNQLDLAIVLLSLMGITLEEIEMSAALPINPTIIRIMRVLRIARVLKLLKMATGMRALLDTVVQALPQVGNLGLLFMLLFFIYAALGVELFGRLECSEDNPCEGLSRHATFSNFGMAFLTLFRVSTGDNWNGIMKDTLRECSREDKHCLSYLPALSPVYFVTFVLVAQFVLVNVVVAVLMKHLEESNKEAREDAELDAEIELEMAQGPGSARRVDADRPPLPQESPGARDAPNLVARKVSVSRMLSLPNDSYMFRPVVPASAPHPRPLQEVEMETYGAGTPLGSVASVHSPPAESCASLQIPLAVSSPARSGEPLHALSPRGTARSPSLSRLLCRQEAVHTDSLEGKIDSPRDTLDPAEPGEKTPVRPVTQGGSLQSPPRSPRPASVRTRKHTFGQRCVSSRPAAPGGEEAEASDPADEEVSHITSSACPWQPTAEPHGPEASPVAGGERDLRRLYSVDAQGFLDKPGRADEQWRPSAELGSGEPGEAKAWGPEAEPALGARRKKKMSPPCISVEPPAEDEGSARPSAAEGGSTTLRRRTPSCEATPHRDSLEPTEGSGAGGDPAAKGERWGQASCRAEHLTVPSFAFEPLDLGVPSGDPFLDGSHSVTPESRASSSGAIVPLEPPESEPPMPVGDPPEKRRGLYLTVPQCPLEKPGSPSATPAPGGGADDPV
# [5] = luciferase reporter signal suppression in cells – H4 neuroglioma cells, luminescence, dose response (AID 1990); type: functional, cell-based
# [6] = Luminescence Cell-Based Dose Response HTS to Identify Inhibitors of 5'UTR Stem-Loop Driven Prion Protein mRNA Translation in H4 Neuroglioblastoma Cells. [Related pubchem assays: 1827 (Project Summary), 1813 (Primary HTS)]; type: functional
# [7] = alpha-synuclein stem-loop luciferase translation blockers – H4 neuroglioma cells, luminescence, confirmation (AID 1988); type: functional, cell-based
# [8] = THP-1 cell cytotoxicity, dose response, cytotoxicity control for non-replicating M. tuberculosis project (AID 489025); type: functional
# cells [9] = type: functional
# [10] = Luminescence Cell-Based Dose Confirmation HTS to Identify Activators of 5'UTR Stem-Loop Driven Alpha-Synuclein mRNA Translation in H4 Neuroglioblastoma Cells. [Related pubchem assays: 1829 (Project Summary), 1814 (Primary HTS)]; type: functional
# [11] = Luminescence Cell-Based Dose Response HTS to Identify Activators of Luciferase Translation or Activity in H4 […] Cells. [Related pubchem assays: 1829 (Project Summary), 1814 (Primary HTS)]; type: functional
# H4 = assay: Luminescence Cell-Based Dose Response HTS to Identify Activators of 5'UTR Stem-Loop Driven Prion Protein mRNA Translation in H4 Neuroglioblastoma Cells. [Related pubchem assays: 1829 (Project Summary), 1814 (Primary HTS)]; type: functional; conditions: Homo sapiens
# [12] = target: T3, Short transient receptor potential channel 4 (Mus musculus, UniProt Q9QUQ5); assay: block of DAMGO-driven TRPC4 calcium entry – cell-based, HEK293 TRPC4/mu-opioid, Fluo-4 calcium, dose response (AID 434942); type: functional;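 note: potency of inhibitors blocking the TRPC4 calcium response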
# T3 sequence (Q9QUQ5 whole entry): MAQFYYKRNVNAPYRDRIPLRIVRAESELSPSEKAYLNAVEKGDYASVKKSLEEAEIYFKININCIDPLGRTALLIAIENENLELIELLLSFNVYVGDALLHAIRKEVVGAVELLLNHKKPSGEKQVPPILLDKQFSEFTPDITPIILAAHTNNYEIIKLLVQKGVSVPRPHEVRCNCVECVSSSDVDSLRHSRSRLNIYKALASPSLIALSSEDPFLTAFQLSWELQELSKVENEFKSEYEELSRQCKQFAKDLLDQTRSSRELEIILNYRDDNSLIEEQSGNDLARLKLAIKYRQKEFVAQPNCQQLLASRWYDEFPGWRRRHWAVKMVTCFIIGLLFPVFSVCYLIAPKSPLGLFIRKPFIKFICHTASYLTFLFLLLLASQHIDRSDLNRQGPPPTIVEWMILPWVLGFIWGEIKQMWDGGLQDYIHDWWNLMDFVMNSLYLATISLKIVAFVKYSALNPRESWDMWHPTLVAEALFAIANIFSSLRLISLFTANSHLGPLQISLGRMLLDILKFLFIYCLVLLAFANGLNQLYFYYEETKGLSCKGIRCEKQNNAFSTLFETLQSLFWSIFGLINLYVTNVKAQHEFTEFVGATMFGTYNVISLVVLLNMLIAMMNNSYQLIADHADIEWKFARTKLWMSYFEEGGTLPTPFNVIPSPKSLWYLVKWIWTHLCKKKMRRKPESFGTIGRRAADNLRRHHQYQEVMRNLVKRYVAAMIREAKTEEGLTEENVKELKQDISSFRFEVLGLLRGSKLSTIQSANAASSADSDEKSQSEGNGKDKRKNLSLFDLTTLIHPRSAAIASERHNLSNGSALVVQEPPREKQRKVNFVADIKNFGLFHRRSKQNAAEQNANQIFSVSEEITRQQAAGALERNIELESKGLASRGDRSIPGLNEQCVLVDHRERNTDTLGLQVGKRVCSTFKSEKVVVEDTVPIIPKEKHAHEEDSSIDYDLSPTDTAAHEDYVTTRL
# [13] = target: T4, Heat shock factor protein 1 (Mus musculus, UniProt P38532); assay: enhancement of HSF1-driven luciferase signal – cell-based, NIH3T3, luminescence, dose retest, confirmation (AID 435004); type: functional;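 note: stress induced by proteasome inhibitor MG132 added 30 min after compound; luciferase reporter driven by HSF1 response element in NIH3T3 cells; actives raise luminescence as potentiators of the MG132 stress response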
# T4 sequence (P38532 whole entry): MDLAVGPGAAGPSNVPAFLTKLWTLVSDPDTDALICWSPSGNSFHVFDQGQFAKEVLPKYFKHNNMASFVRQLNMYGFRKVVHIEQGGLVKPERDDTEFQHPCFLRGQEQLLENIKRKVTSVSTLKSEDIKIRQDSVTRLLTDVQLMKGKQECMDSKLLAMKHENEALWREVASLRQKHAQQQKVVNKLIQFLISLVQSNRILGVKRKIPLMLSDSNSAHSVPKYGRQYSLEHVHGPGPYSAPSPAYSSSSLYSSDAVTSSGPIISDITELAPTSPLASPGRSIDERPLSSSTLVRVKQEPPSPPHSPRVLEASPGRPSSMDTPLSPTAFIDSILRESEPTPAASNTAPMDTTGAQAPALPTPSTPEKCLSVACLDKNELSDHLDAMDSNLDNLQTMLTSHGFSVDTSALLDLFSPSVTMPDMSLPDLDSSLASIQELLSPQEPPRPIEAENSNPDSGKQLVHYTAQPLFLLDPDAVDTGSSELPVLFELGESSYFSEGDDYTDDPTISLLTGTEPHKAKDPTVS
# INS1 = assay: INS-1E survival protection against cytokine death – cell-based, luminescence, retest, dose response (AID 449756); type: functional; conditions: Rattus norvegicus;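 note: cell death triggered by IL-1 beta plus TNF-alpha plus IFN-gamma mixture; protective hits raise ATP signal compared with cytokine alone wells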
# Large T antigen = Large T antigen (Simian virus 40, UniProt P03070); type: functional, Betapolyomavirus macacae;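 note: Confirmatory-stage PubChem screen for compounds that inhibit SV40 T antigen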
# Large T antigen, sequence (P03070 whole entry): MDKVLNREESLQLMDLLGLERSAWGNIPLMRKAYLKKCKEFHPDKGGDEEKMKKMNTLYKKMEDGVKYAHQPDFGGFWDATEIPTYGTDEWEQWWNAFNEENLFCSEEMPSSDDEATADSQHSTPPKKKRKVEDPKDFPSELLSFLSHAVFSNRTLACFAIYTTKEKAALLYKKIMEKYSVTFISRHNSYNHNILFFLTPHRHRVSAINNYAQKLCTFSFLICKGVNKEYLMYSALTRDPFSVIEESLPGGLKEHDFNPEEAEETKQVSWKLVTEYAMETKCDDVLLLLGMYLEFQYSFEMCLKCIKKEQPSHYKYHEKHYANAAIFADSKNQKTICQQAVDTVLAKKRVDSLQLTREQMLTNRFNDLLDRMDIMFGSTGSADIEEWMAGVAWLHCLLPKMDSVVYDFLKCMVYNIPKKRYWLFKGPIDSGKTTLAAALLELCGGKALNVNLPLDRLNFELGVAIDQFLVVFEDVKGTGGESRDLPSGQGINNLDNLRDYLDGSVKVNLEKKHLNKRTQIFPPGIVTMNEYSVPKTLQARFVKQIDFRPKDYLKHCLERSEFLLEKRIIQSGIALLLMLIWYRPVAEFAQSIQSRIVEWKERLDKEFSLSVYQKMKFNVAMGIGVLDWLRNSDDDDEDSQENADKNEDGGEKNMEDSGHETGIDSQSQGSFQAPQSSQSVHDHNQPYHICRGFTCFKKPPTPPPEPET
# [14] = system: Streptococcus sp. 'group A'; assay: Streptococcus pyogenes SK(-)GAS viability under kanamycin – luminescence, BacTiterGlo, confirmation, counter-screen for streptokinase expression inhibitor project, dose response (AID 1900); type: functional, organism-based
# cells [15] = type: functional, cell-based
# Streptokinase A = target: T5, Streptokinase A (Streptococcus pyogenes serotype M1, UniProt P10520); assay: viability-normalized secreted streptokinase activity reduction – plasminogen activation absorbance, OD405, dose response (AID 1914); type: functional, Streptococcus pyogenes M1 GAS;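 note: secreted streptokinase activity via plasminogen activation per viability signal from cell pellet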
# T5 sequence (P10520 whole entry): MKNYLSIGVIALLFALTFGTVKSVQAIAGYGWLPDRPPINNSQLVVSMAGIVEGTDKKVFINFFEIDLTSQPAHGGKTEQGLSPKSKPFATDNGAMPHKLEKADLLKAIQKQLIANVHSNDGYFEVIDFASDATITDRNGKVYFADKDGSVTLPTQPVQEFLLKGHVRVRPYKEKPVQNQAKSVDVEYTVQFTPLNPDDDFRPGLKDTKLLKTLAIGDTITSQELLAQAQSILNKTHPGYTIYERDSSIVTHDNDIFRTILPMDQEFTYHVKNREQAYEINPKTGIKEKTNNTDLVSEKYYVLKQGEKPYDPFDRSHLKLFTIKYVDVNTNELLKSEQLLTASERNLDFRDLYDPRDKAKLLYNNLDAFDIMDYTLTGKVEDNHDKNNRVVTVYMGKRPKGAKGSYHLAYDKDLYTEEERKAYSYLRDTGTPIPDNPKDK
# cells [16] = type: functional, cell-based; remark: listed apart in the source
# Streptococcus = assay: GAS UMAA2166 growth inhibition – luminescence, BacTiterGlo, counter-screen for streptokinase expression inhibitor project, dose response (AID 1915); type: functional, organism-based;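 note: potency for reduction of bacterial viability or growth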
smiles,measurement,setting,value
Cc1cc(NC(=O)CSc2nc3ccccc3c(=O)n2Cc2ccc(F)cc2)no1,IC50,Protein skinhead-1,82.4 µM (inactive)
Cc1cc(C)n(Cc2ccc(C(=O)NCc3ccco3)o2)n1,IC50,Protein skinhead-1,> 100 µM (inactive)
COc1cccc(NC(=O)CSc2nc3ccccc3c(=O)n2CCCC(=O)NCCCN2CCOCC2)c1,IC50,[1],> 20 µM (inactive)
Cc1ccc(O)c(C(=O)CC(=O)c2cccc(F)c2)c1,IC50,"Vero [2]; Chlorocebus sabaeus, Vero",21.1 µM (active)
same,CC50,"Vero [3]; Chlorocebus sabaeus, Vero",> 25 µM (active)
COc1cccc(N2CCN(CC(=O)Nc3nnc(-c4ccccc4)s3)CC2)c1,EC50,[4],6.4 µM (active)
COc1cccc(C(c2sc3ncnn3c2O)N2CC(C)OC(C)C2)c1 (stereo not drawn),IC50,Protein skinhead-1,> 100 µM (inactive)
COC(=O)c1c(NC(=O)c2ccc(OC(C)C)cc2)sc2c1CC(C)(C)NC2(C)C,EC50,[5],8.35 µM (active)
same,EC50,[6],8.41 µM (active)
same,EC50,[7],8.31 µM (active)
same,IC50,[1],> 20 µM (inactive)
same,IC50,"Vero [2]; Chlorocebus sabaeus, Vero",23.3 µM (active)
same,CC50,"Vero [3]; Chlorocebus sabaeus, Vero",> 25 µM (active)
Cc1ccccc1CSCCNC(=O)CN(c1ccc2c(c1)OCO2)S(C)(=O)=O,EC50,[4],5 µM (active)
N#Cc1ccsc1NC(=O)C1CCN(C(=O)c2ccc(Cl)cc2)CC1,IC50,[1],> 20 µM (inactive)
Cc1ccc(C)c(N2CCN(C(=O)CC3Sc4ccccc4NC3=O)CC2)c1 (stereo not drawn),EC50,[4],3.76 µM (active)
CCCCN1CCC(O)(c2ccccc2)C(C(=O)c2ccccc2)C1 (stereo not drawn),CC50,[8],> 40 µM (active)
same,IC50,cells [9],29.6 µM (active)
CC(=O)c1cccc(NS(=O)(=O)c2ccc3c(c2)oc(=O)n3C)c1,IC50,Protein skinhead-1,> 100 µM (inactive)
CCC(=O)Nc1ccc(S(=O)(=O)N2CCc3ccccc3C2)cc1,EC50,[4],7.83 µM (active)
O=C(CSc1nc2ccccc2n1-c1ccccc1)Nc1ncc(Cl)cc1Cl,IC50,"Vero [2]; Chlorocebus sabaeus, Vero",4.63 µM (active)
same,CC50,"Vero [3]; Chlorocebus sabaeus, Vero",22.1 µM (active)
C=CCNc1nnc(Sc2ncccc2[N+](=O)[O-])s1,EC50,[10],> 120 µM (not active)
same,EC50,[11],10.3 µM (inconclusive)
same,EC50,H4,17.8 µM (active)
same,CC50,[8],33.4 µM (active)
same,IC50,cells [9],3.81 µM (active)
CC(C(=O)N1c2ccccc2Sc2ccccc21)n1nnc(-c2cccs2)n1 (stereo not drawn),EC50,[4],6.38 µM (active)
CCOC(=O)C1(CCOc2ccccc2)CCN(Cc2cccs2)CC1,EC50,[12],4.22 µM (active)
COc1ccc(Br)cc1CN1CCN(C(=O)Cc2ccccc2)CC1,EC50,[12],6.68 µM (active)
N#C/C(=C\c1cn(CCOc2ccccc2)c2ccccc12)C(=O)NCC1CCCO1 (stereo not drawn),EC50,[4],5.31 µM (active)
COc1ccc(Cn2nnnc2C(c2cc3cc(C)ccc3nc2O)N2CCN(C)CC2)cc1 (stereo not drawn),EC50,[12],1.88 µM (active)
c1ccc(Cn2nnnc2C(c2cccs2)N2CCc3ccccc3C2)cc1 (stereo not drawn),EC50,[4],0.844 µM (active)
same,EC50,[13],> 260 µM (inactive)
N=c1c2c(n(Cc3ccccc3)c3c1CCC3)CCC2,EC50,[12],3.35 µM (active)
Clc1cccc(OCc2nc(-c3ccncc3)no2)c1,IC50,Protein skinhead-1,26.6 µM (active)
CCCCCc1cc(=O)oc2c(C(CCN(CC)CC)c3ccc(OC)cc3)c(OC)cc(OC)c12 (stereo not drawn),IC50,[1],> 20 µM (inactive)
same,AC50,INS1,10.8 µM (active)
CNCCNC[C@H](Cc1cccc2ccccc12)NCCc1ccccc1,IC50,"Vero [2]; Chlorocebus sabaeus, Vero",20.4 µM (active)
CCOC(=O)Cc1cc(=O)n(-c2nc3ccccc3s2)[nH]1,IC50,Large T antigen,> 100 µM (active)
Cc1nc2ccccc2c(=O)n1/N=C/c1ccc2ccccc2c1O,EC50,[14],44.6 µM (active)
same,EC50,cells [15],> 350 µM (not active)
same,EC50,Streptokinase A,> 150 µM (not active)
same,EC50,cells [16],> 350 µM (not active)
same,EC50,Streptococcus,> 150 µM (not active)
COc1cc(/C=N/N(C)C)cc(Br)c1O,IC50,Large T antigen,5.17 µM (active)
CCCc1ccc(OCc2ccc(C(=O)N/N=C/c3cccnc3)o2)cc1,CC50,[8],> 40 µM (active)
same,IC50,cells [9],47.6 µM (active)
C[C@]12CCCC[C@@H]1CC[C@@H]1[C@@H]2CC[C@@]2(C)[C@H]1CC[C@@]2(O)CNCCO,IC50,[1],> 20 µM (inactive)
same,IC50,"Vero [2]; Chlorocebus sabaeus, Vero",> 12.5 µM (active)
same,IC50,Vero [2]; vero,9.19 µM (active)
same,CC50,Vero [3],19.4 µM (active)
same,CC50,"Vero [3]; Chlorocebus sabaeus, Vero",18.4 µM (active)
